Laboratory results taken from patent publication US20160157477A1, “USE OF VISUAL CUES TO ENHANCE BIRD REPELLENT COMPOSITIONS” (ARKION LIFE SCIENCES, LLC, priority 2014, published 2016).

Columns and labels:
[1] = test system: birds; conditions: '678 patent; cited from earlier work
[2] = test system: red-winged blackbirds; conditions: anthraquinone only, cited from earlier work
[3] = test system: red-winged blackbirds; assay: Threshold AQ concentration previously established for red-winged blackbirds (Werner et al. 2009); assay type: in vivo, red-winged blackbirds (Agelaius phoeniceus); conditions: 80% repellency, anthraquinone only, interpolated between the 70% and 100% values
Experimental: The concentration response of AQ plus TiO2 feeding cue was tested. This experiment was designed to establish a concentration response relationship of AQ plus 0.2% TiO2 treated sunflower seeds for blackbirds in captivity. The experiment was also designed to establish a threshold concentration of AQ necessary for blackbird feeding repellency when reduced by varying the concentration of AQ based repellent combined with a TiO2 feeding cue. This optimized AQ concentration was expected to be less than the threshold AQ concentration previously established for red-winged blackbirds done by Werner et al. (2009) and shown in column 2 of Table 1. Daily sunflower consumption was measured throughout the pretreatment and test phases of the experiment as previously described. Greater than 80% repellency during a captive feeding trial is the operational level for an effective repellent as has been documented in the field using AQ repellents, see Werner et al. (2009) and (2011).

In the case of `O=C1c2ccccc2C(=O)c2ccccc21` [Anthraquinone Only, 9,10-anthraquinone], the “AQ concentration to achieve 74% repellency” value [1] is listed as 1778 ppm, the “[AQ] ppm by weight for RWBL Repellency 20%” value ([2]; 20% repellency) is listed as 193 (222*20/23) ppm by weight and the “[AQ] ppm by weight for RWBL Repellency 35%” value ([2]; 35% repellency) is listed as 572 (556*34/35) ppm by weight. The “[AQ] ppm by weight for RWBL Repellency 50%” value ([2]; 50% repellency) was 538 (560*50/52) ppm by weight, the “[AQ] ppm by weight for RWBL Repellency 70%” value ([2]; 70% repellency) was 1682 (1778*74/70) ppm by weight and the “[AQ] ppm by weight for RWBL Repellency 100%” value ([2]; 100% repellency) was 1846 (1994*100/108) ppm by weight. The “[AQ] ppm by weight for RWBL Repellency 80% (expected AQ concentration)” value [3] was 1737 ((1846 − ppm by weight, the “[AQ] ppm by weight for RWBL Repellency 80% (expected AQ concentration)” value ([3]; listed as AQ) was 1737 ppm by weight and the “[AQ] ppm by weight for RWBL Repellency 80% (expected AQ concentration)” value ([3]; listed as straight AQ) was 1737 ppm by weight.
